20 compounds from patent US9201014B2, “Development of photostable near-IR cyanine dyes for in vivo imaging” (National University of Singapore, priority 2010, dated 2015) can be followed below.

Series [1] in a line: Primary screening of photostability of the CyNA library (time-course fluorescence, 8 h). In kind it is physicochemical. More on the design: F/Fo, fluorescent intensity at 8 hours vs 0 hours: unit: %. Particulars: 10 μM in HEPES 100 mM pH 7.4, 2% DMSO. The procedure:
As a primary evaluation of photo stability, the decrease in fluorescence intensity of the 80 CyNA compounds was measured (see Table 2). The average decrease in fluorescence intensity after 8 hours of irradiation by a xenon lamp was approximately 18%. A subset of the most photostable compounds (i.e., F/Fo reported in Table 2 was greater than or equal to 95) was examined under stronger irradiation in various buffers.
10-μM CyNA solutions in 100 mM HEPES buffer (pH 7.4) containing 2% DMSO were placed in a 96-well black plate, and fluorescence intensity measurements were recorded every 10 minutes for a total period of 8 hours (excitation-emission: 790-820 nm). A subset of fourteen compounds selected according to their F8h/Fo quotients, quantum yields and maximum relative fluorescence units (RFU) values was further evaluated in a secondary screening

Series [2] can be described thus: Absorbance and fluorescence maximum wavelengths and quantum yields of the CyNA library. In kind it is physicochemical. Particulars: for λabs, absorbance maximum wavelength / λem, fluorescence maximum wavelength: CyNA library; for φ, quantum yield: in DMSO, Cardiogreen as standard. The procedure: Since the k values of the different CyNA compounds indicated some dependency on the chemical structure of the amine, the CyNA scaffold was derivatized with a broad range of primary amines (FIGS. 4A-4C). The fluorescence properties of the 80-member CyNA library were measured. The absorption maximum wavelengths ranged from 802 nm to 806 nm, emission maximum wavelengths ranged from 817 nm to 823 nm, and the average quantum yield was approximately 0.10 (Table 2).
All the chemicals (building block amines plus others) and solvents were purchased from Sigma Aldrich, Alfa Aesar, Fluka, MERCK or Acros, and used without further purification. ^1H-NMR and ^13C-NMR spectra were recorded on Bruker Avance 300 NMR and 500 NMR spectrometers, and chemical shifts are expressed in parts per million (ppm). High-resolution mass spectrometry (HRMS) data was recorded on a Micromass VG 7035. Photobleaching experiments were performed using a UVP Blak-Ray® B-100AP high intensity UV lamp (100 W, 365 nm) Spectroscopic and quantum yield data were measured on a SpectraMax M2 spectrophotometer (Molecular Devices), and the data analysis was performed using GraphPrism 5.0. Photobleaching measurements were performed using an Eclipse Ti-U Nikon microscope (filter cube: 750/800) attached to Ti:sappire oscillator that operated in continuous wave mode, and the data was processed using the software NIS-Elements 3.10. In vivo images were taken in an IVIS Spectrum imaging system (Caliper Life Sciences).

With `CCCN1/C(=C/C=C2\CCCC(/C=C/C3=[N+](CCC)c4ccccc4C3(C)C)=C2N(CCc2ccc([N+](=O)[O-])cc2)C(C)=O)C(C)(C)c2ccccc21` [CyNA-359], in series [1], the “F/Fo, fluorescent intensity at 8 hours vs 0 hours” value (shortened to “F/Fo … vs 0 hours”) amounted to 85 and the “max RFU, maximum relative fluorescence units” value was 527.6. For the same compound, in series [2], the “λabs, absorbance maximum wavelength” value is listed as 805 nm; the “λem, fluorescence maximum wavelength” value turned out to be 821 nm; the “φ, quantum yield” value is 0.11.

Regarding `CCCN1/C(=C/C=C2\CCCC(/C=C/C3=[N+](CCC)c4ccccc4C3(C)C)=C2N(Cc2ccccc2Cl)C(C)=O)C(C)(C)c2ccccc21` [CyNA-364], in series [1], the “F/Fo … vs 0 hours” value was 98 and the “max RFU, maximum relative fluorescence units” value was found to be 264.8. In series [2], the “λabs, absorbance maximum wavelength” value amounted to 804 nm; the “λem, fluorescence maximum wavelength” value came to 821 nm; the “φ, quantum yield” value was found to be 0.05.

For the compound `CCCCN(C(C)=O)C1=C(/C=C/C2=[N+](CCC)c3ccccc3C2(C)C)CCC/C1=C\C=C1\N(CCC)c2ccccc2C1(C)C` [CyNA-373], in series [1], the “F/Fo … vs 0 hours” value is reported as 76 and the “max RFU, maximum relative fluorescence units” value is on record as 567.2. For the same compound, in series [2], the “λabs, absorbance maximum wavelength” value was 805 nm; the “λem, fluorescence maximum wavelength” value worked out at 820 nm; the “φ, quantum yield” value is listed as 0.07.

Take `CCCN1/C(=C/C=C2\CCCC(/C=C/C3=[N+](CCC)c4ccccc4C3(C)C)=C2N(Cc2ccccc2F)C(C)=O)C(C)(C)c2ccccc21` [CyNA-375]: in series [1], the “F/Fo … vs 0 hours” value is listed as 98 and the “max RFU, maximum relative fluorescence units” value is 533.7. For the same compound, in series [2], the “λabs, absorbance maximum wavelength” value was 804 nm; the “λem, fluorescence maximum wavelength” value was 821 nm; the “φ, quantum yield” value was determined as 0.07.

For `CCCN1/C(=C/C=C2\CCCC(/C=C/C3=[N+](CCC)c4ccccc4C3(C)C)=C2N(CC2CCCCC2)C(C)=O)C(C)(C)c2ccccc21` [CyNA-382], in series [1], the “F/Fo … vs 0 hours” value is 85 and the “max RFU, maximum relative fluorescence units” value was found to be 294.6. Also, in series [2], the “λabs, absorbance maximum wavelength” value is recorded as 804 nm; the “λem, fluorescence maximum wavelength” value came out at 820 nm; the “φ, quantum yield” value is 0.08.

As to `CCCN1/C(=C/C=C2\CCCC(/C=C/C3=[N+](CCC)c4ccccc4C3(C)C)=C2N(Cc2cccc(OC)c2)C(C)=O)C(C)(C)c2ccccc21` [CyNA-387], in series [1], the “F/Fo … vs 0 hours” value worked out at 75 and the “max RFU, maximum relative fluorescence units” value is on record as 739.9. In addition, in series [2], the “λabs, absorbance maximum wavelength” value amounted to 804 nm; the “λem, fluorescence maximum wavelength” value came to 820 nm; the “φ, quantum yield” value turned out to be 0.07.

With `CCCN1/C(=C/C=C2\CCCC(/C=C/C3=[N+](CCC)c4ccccc4C3(C)C)=C2N(Cc2ccccc2OC)C(C)=O)C(C)(C)c2ccccc21` [CyNA-388], in series [1], the “F/Fo … vs 0 hours” value was 97 and the “max RFU, maximum relative fluorescence units” value came out at 1398.5. Also, in series [2], the “λabs, absorbance maximum wavelength” value was 803 nm; the “λem, fluorescence maximum wavelength” value was 819 nm; the “φ, quantum yield” value is given as 0.14.

With `CCCN1/C(=C/C=C2\CCCC(/C=C/C3=[N+](CCC)c4ccccc4C3(C)C)=C2N(CCc2ccc(OC)cc2)C(C)=O)C(C)(C)c2ccccc21` [CyNA-395], in series [1], the “F/Fo … vs 0 hours” value was found to be 95 and the “max RFU, maximum relative fluorescence units” value was 234.3. Moreover, in series [2], the “λabs, absorbance maximum wavelength” value is reported as 804 nm; the “λem, fluorescence maximum wavelength” value amounted to 820 nm; the “φ, quantum yield” value amounted to 0.07.

For the compound `CCCN1/C(=C/C=C2\CCCC(/C=C/C3=[N+](CCC)c4ccccc4C3(C)C)=C2N(Cc2ccc(C)cc2)C(C)=O)C(C)(C)c2ccccc21` [CyNA-396], in series [1], the “F/Fo … vs 0 hours” value worked out at 96 and the “max RFU, maximum relative fluorescence units” value is recorded as 736.1. Also, in series [2], the “λabs, absorbance maximum wavelength” value was determined as 804 nm; the “λem, fluorescence maximum wavelength” value stood at 820 nm; the “φ, quantum yield” value came to 0.09.

Turning to `CCCN1/C(=C/C=C2\CCCC(/C=C/C3=[N+](CCC)c4ccccc4C3(C)C)=C2N(Cc2cccc(C)c2)C(C)=O)C(C)(C)c2ccccc21` [CyNA-398], in series [1], the “F/Fo … vs 0 hours” value is reported as 99 and the “max RFU, maximum relative fluorescence units” value is 540.2. In addition, in series [2], the “λabs, absorbance maximum wavelength” value is 804 nm; the “λem, fluorescence maximum wavelength” value was determined as 819 nm; the “φ, quantum yield” value worked out at 0.07.

With `CCCN1/C(=C/C=C2\CCCC(/C=C/C3=[N+](CCC)c4ccccc4C3(C)C)=C2N(Cc2ccc(F)cc2F)C(C)=O)C(C)(C)c2ccccc21` [CyNA-399], in series [1], the “F/Fo … vs 0 hours” value came to 95 and the “max RFU, maximum relative fluorescence units” value came to 775.5. Moreover, in series [2], the “λabs, absorbance maximum wavelength” value was 804 nm; the “λem, fluorescence maximum wavelength” value was found to be 819 nm; the “φ, quantum yield” value was determined as 0.10.

On to `CCCN1/C(=C/C=C2\CCCC(/C=C/C3=[N+](CCC)c4ccccc4C3(C)C)=C2N(Cc2ccccn2)C(C)=O)C(C)(C)c2ccccc21` [CyNA-401], for which, in series [1], the “F/Fo … vs 0 hours” value is reported as 91 and the “max RFU, maximum relative fluorescence units” value was found to be 856.5. In series [2], the “λabs, absorbance maximum wavelength” value is given as 805 nm; the “λem, fluorescence maximum wavelength” value came out at 820 nm; the “φ, quantum yield” value amounted to 0.10.

In the case of `CCCN1/C(=C/C=C2\CCCC(/C=C/C3=[N+](CCC)c4ccccc4C3(C)C)=C2N(Cc2cccc(Cl)c2)C(C)=O)C(C)(C)c2ccccc21` [CyNA-403], in series [1], the “F/Fo … vs 0 hours” value is recorded as 45 and the “max RFU, maximum relative fluorescence units” value was 261.6. In series [2], the “λabs, absorbance maximum wavelength” value was 805 nm; the “λem, fluorescence maximum wavelength” value was determined as 819 nm; the “φ, quantum yield” value is 0.05.

For the compound `CCCN1/C(=C/C=C2\CCCC(/C=C/C3=[N+](CCC)c4ccccc4C3(C)C)=C2N(CCc2cccc(F)c2)C(C)=O)C(C)(C)c2ccccc21` [CyNA-405], in series [1], the “F/Fo … vs 0 hours” value is 83 and the “max RFU, maximum relative fluorescence units” value was determined as 138.5. Besides, in series [2], the “λabs, absorbance maximum wavelength” value is on record as 806 nm; the “λem, fluorescence maximum wavelength” value was determined as 820 nm; the “φ, quantum yield” value was 0.06.

As for `CCCCCCCCCCN(C(C)=O)C1=C(/C=C/C2=[N+](CCC)c3ccccc3C2(C)C)CCC/C1=C\C=C1\N(CCC)c2ccccc2C1(C)C` [CyNA-407], the “max RFU, maximum relative fluorescence units” value in series [1] was 22.5. For the same compound, in series [2], the “λabs, absorbance maximum wavelength” value is given as 805 nm; the “λem, fluorescence maximum wavelength” value came to 820 nm; the “φ, quantum yield” value was found to be 0.08.

Turning to `CCCCCN(C(C)=O)C1=C(/C=C/C2=[N+](CCC)c3ccccc3C2(C)C)CCC/C1=C\C=C1\N(CCC)c2ccccc2C1(C)C` [CyNA-419], in series [1], the “F/Fo … vs 0 hours” value was determined as 91 and the “max RFU, maximum relative fluorescence units” value was determined as 835.2. Moreover, in series [2], the “λabs, absorbance maximum wavelength” value worked out at 804 nm; the “λem, fluorescence maximum wavelength” value is on record as 820 nm; the “φ, quantum yield” value was 0.13.

Turning to `CCCN1/C(=C/C=C2\CCCC(/C=C/C3=[N+](CCC)c4ccccc4C3(C)C)=C2N(CCCN(C)C)C(C)=O)C(C)(C)c2ccccc21` [CyNA-427], in series [1], the “F/Fo … vs 0 hours” value is given as 100 and the “max RFU, maximum relative fluorescence units” value was 1247.4. Besides, in series [2], the “λabs, absorbance maximum wavelength” value turned out to be 805 nm; the “λem, fluorescence maximum wavelength” value worked out at 821 nm; the “φ, quantum yield” value was determined as 0.14.

With `CCCN1/C(=C/C=C2\CCCC(/C=C/C3=[N+](CCC)c4ccccc4C3(C)C)=C2N(CCC(C)C)C(C)=O)C(C)(C)c2ccccc21` [CyNA-442], in series [1], the “F/Fo … vs 0 hours” value was found to be 54 and the “max RFU, maximum relative fluorescence units” value is listed as 424.2. For the same compound, in series [2], the “λabs, absorbance maximum wavelength” value is 806 nm; the “λem, fluorescence maximum wavelength” value amounted to 822 nm; the “φ, quantum yield” value is 0.07.

On to `CCCN1/C(=C/C=C2\CCCC(/C=C/C3=[N+](CCC)c4ccccc4C3(C)C)=C2N(Cc2ccco2)C(C)=O)C(C)(C)c2ccccc21` [CyNA-446], for which, in series [1], the “F/Fo … vs 0 hours” value was 85 and the “max RFU, maximum relative fluorescence units” value turned out to be 709.2. In series [2], the “λabs, absorbance maximum wavelength” value is recorded as 804 nm; the “λem, fluorescence maximum wavelength” value came out at 821 nm; the “φ, quantum yield” value is 0.08.

On to `CCCN1/C(=C/C=C2\CCCC(/C=C/C3=[N+](CCC)c4ccccc4C3(C)C)=C2N(CCc2ccccc2F)C(C)=O)C(C)(C)c2ccccc21` [CyNA-477], for which the “max RFU, maximum relative fluorescence units” value in series [1] was 169.8. Moreover, in series [2], the “λabs, absorbance maximum wavelength” value is listed as 805 nm; the “λem, fluorescence maximum wavelength” value was found to be 819 nm; the “φ, quantum yield” value is 0.09.
